Source: patent US20250034201A1, “PRODRUGS OF GANAXOLONE” (priority 2022, published 2025)
Values after ≈ are worked out from the molar mass of the structure shown. Where two headings read alike, the source gives them in different places.

Columns and labels:
in vitro [1] = settings: for half-life / Observations: stability / GNX production in rat plasma / Observations: stability / GNX production in human plasma: plasma
Description: The plasma stability of exemplary compounds was tested using rat, mice, dog, and human plasma, according to the following protocol. For each test compound, samples at a final concentration of 2 μg/mL were prepared in blank plasma of selected species. All samples were incubated at 37° C. on a 150-RPM orbital shaker, and an aliquot was removed at pre-determined time points (0, 15, 30, 60, and 120 minutes). Samples were precipitated with three volumes of acetonitrile containing propranolol as internal standard, and centrifuged for 10 min at 2000 g before LC/MS/MS analysis of the supernatant solutions.

in vitro [2] = type: in vitro ADME, human
Description: (§1) For several compounds only human liver microsomal stability was tested. […] The microsomal assays were carried out with and without the addition of NADPH at a final concentration of 1 mM. For negative control samples, NADPH reagent was not added. […] Note that compounds undergo only Phase I metabolism in liver microsomes.

[3] = Measured solubility in buffer, LC-MS/MS; type: physicochemical; settings: aqueous buffer, thermodynamic from solid
Description: […] The mixture was vortexed and a magnetic stirring bar was subsequently added to the vial. The vial was placed on a magnetic stirrer with constant stirring for 16-24 hours at room temperature. The pH of the top layer solution was measured. Subsequently, 200 μL of the top layer solution was placed in a 1.5 mL microcentrifuge tube and centrifuged at 18,000 g for 10 min at room temperature. A 10 μL aliquot of supernatant was added to 990 μL of methanol:water (1/:1, v/v) and vortexed. Then, one volume of acetonitrile containing internal standard was added to one volume of the above 100-fold diluted solution and the resulting solution was vortexed and placed in 96-well plate for LC-MS/MS analysis. […] LC-MS-MS analysis was performed utilizing multiple reaction monitoring for detection of characteristic ions for each test compound, additional related analytes and internal standard.

[4] = Rat liver microsomal stability; type: in vitro ADME; settings: for half-life / microsomal CLint: rat liver microsomes 0.5 mg/mL, with NADPH; for half-life / microsomal CLint / Rat Liver Microsomal Stability no NADPH, % remain 1 h: compound 0.5 μM; for half-life: 37° C., read-out: Rat Liver Microsomal Stability t1/2; for microsomal CLint: read-out: Rat Liver Microsomal Stability CLint (uL/min/mg liver); for Rat Liver Microsomal Stability no NADPH, % remain 1 h / Comments: production of GNX (ganaxolone) in rat liver microsomes: rat liver microsomes
Description: as §1
(§2) CLint=the intrinsic hepatic clearance (uL/min/mg), where CLint is equal to 0.693/(t1/2×Cmp)

[5] = Stability in simulated intestinal fluid (SIF); type: in vitro ADME
Description: (§3) The stability of exemplary compounds in simulated gastric fluid (SGF) and simulated intestinal fluid (SIF) was tested according to the following protocol.

[6] = Stability in simulated gastric fluid (SGF); type: in vitro ADME
Description: as §3

Dog plasma stability = type: in vitro ADME
[7] = Dog liver microsomal stability; type: in vitro ADME
Description: as §1, §2
Certain compounds were also tested in mice and dog liver microsome assays according to the protocol outlined above. […].

[8] = human liver microsomes 0.5 mg/mL, with NADPH, compound 0.5 μM, 37° C., read-out: Human Liver Microsomal Stability t1/2
[9] = human liver microsomes 0.5 mg/mL, with NADPH, compound 0.5 μM, read-out: Human Liver Microsomal Stability CLint (uL/min/mg liver) (converted)
[10] = human liver microsomes, no NADPH, compound 0.5 μM
[11] = pH 7.4, 50 mM phosphate buffer, 16-24 hours, room temperature, read-out: Solubility pH 7.4
[12] = buffer, pH 2.0, room temperature, read-out: Solubility pH 2.0
[13] = SIF with pancreatin pH 6.8, 37° C., 60 min
[14] = SGF with pepsin pH 1.2, 37° C., 60 min
[15] = simulated gi fluid, SIF with pancreatin pH 6.8, 37° C., 2 μg/mL, read-out: SIF t1/2
[16] = dog plasma, 2 μg/mL, 37° C., read-out: Dog plasma Half life (t1/2)
[17] = dog liver microsomes 0.5 mg/mL, compound 0.5 μM, read-out: Dog Liver Microsomal Stability CLint (uL/min/mg liver)
[18] = dog liver microsomes 0.5 mg/mL, compound 0.5 μM, read-out: Dog Liver Microsomal Stability t1/2
[19] = simulated gi fluid, SGF with pepsin pH 1.2, 37° C., 2 μg/mL, read-out: SGF t1/2

| Structure (SMILES) | Human plasma t90 (in vitro [1]; human plasma, 2 μg/mL, 37° C.) [min] | half-life (in vitro [1]; human) [min] | Rat plasma t90 (in vitro [1]; 2 μg/mL, 37° C.) [min] | Observations: stability / GNX production in rat plasma (in vitro [1]; rat) | half-life (in vitro [1]; rat) [min] | half-life (in vitro [2]; [8]) [min] | microsomal CLint (in vitro [2]; [9]) [µL/min/mg] | Human Liver Microsomal Stability no NADPH, % remain 1 h (in vitro [2]; [10]) [%] | solubility [3, 11] [µg/mL] | solubility [3, 12] [µg/mL] | half-life [4] [min] | microsomal CLint [4] [µL/min/mg] | Rat Liver Microsomal Stability no NADPH, % remain 1 h [4] [%] | SIF (% remain, 60 min) [5, 13] [%] | SGF (% remain, 60 min) [6, 14] [%] | Observations: stability / GNX production in human plasma (in vitro [1]; human) | Observations: stability / GNX production in dog plasma (Dog plasma stability; dog plasma) | microsomal CLint [7, 17] [µL/min/mg] | half-life [7, 18] [min] | Dog Liver Microsomal Stability no NADPH, % remain 1 h ([7]; dog liver microsomes, no NADPH) [%] | further results |
| --- | --- | --- | --- | --- | --- | --- | --- | --- | --- | --- | --- | --- | --- | --- | --- | --- | --- | --- | --- | --- | --- |
| CC(=O)[C@H]1CC[C@H]2[C@@H]3CC[C@H]4C[C@](C)(OC(=O)COC(=O)CN5CCOCC5)CC[C@]4(C)[C@H]3CC[C@]12C [Compound 200] | 2.19 | 14.6 | 1.4 | In rat, compound converted | 9.5 | 6 | 229 | 1 | 29 (≈ 56 µM) | 11800 (≈ 22800 µM) | 12.1 | 115 | 7.5 | 31 | 99.0 |  |  |  |  |  |  |
| CC(=O)OCCN(C)CC(=O)OC(C)(C)C(=O)OCC(=O)O[C@]1(C)CC[C@@]2(C)[C@@H](CC[C@@H]3[C@@H]2CC[C@]2(C)[C@@H](C(C)=O)CC[C@@H]32)C1 [Compound 242] |  | 33 |  |  |  |  |  |  |  |  |  |  |  |  |  | No GNX produced | No GNX produced |  |  |  | Human plasma t90 (in vitro [1]; human): 4.99 min; half-life (in vitro [2]; human, microsomes): 1.41 min; microsomal CLint (in vitro [2]; human, microsomes): 982 µL/min/mg; Human Liver Microsomal Stability no NADPH, % remain 1 h (in vitro [2]; human, microsomes): 0.26%; Dog plasma t90 (Dog plasma stability; dog): 578 min; half-life (Dog plasma stability; dog plasma): 3840 min; SIF (% remain, 60 min) ([5]; simulated gi fluid, 1 h, pH 6.8): 29%; half-life ([5]; simulated gi fluid, pH 6.8): 146 min; half-life ([7]; dog, microsomes): 2.07 min; microsomal CLint ([7]; dog, microsomes): 668 µL/min/mg; Dog Liver Microsomal Stability no NADPH, % remain 1 h ([7]; dog, microsomes): 0.89%; SGF (% remain, 60 min) ([6]; simulated gi fluid, 1 h, pH 1.2): 99.1%; half-life ([6]; simulated gi fluid, pH 1.2): 4600 min |
| CC(=O)[C@H]1CC[C@H]2[C@@H]3CC[C@H]4C[C@](C)(OC(=O)CO)CC[C@]4(C)[C@H]3CC[C@]12C [Compound 201] | 313 | 2080 | 82 | compound very slowly | 543 | 17.4 | 79.5 | 70 | 33 (≈ 84.5 µM) | 36 (≈ 92.2 µM) | 32.4 | 42.7 | 99.5 | 98.0 |  | compound very slowly |  |  |  |  | Comments: production of GNX (ganaxolone) in human liver microsomes (in vitro [2]; human liver microsomes): In human, GNX produced; half-life [5, 15]: 1580 min |
| CC(=O)[C@H]1CC[C@H]2[C@@H]3CC[C@H]4C[C@](C)(OC(=O)CNC(C)(C)C(=O)O)CC[C@]4(C)[C@H]3CC[C@]12C [Compound 120] | 218 | 1490 | 78 | No GNX produced in rat, | 520 | 16 | 86 | 8 | 35 (≈ 73.6 µM) | 39 (≈ 82 µM) | 36 | 38 | 72 | 74 | 83 | No GNX produced in rat, | No GNX produced in rat, | 17 | 81 | 83 | Comments: production of GNX (ganaxolone) in rat liver microsomes [4]: In rat no GNX produced;; Dog plasma t90 (Dog plasma stability; dog plasma, 2 μg/mL, 37° C.): 88 min; half-life (Dog plasma stability; [16]): 583 min; half-life [5, 15]: 199 min; half-life [6, 19]: 250 min |
| CC(=O)[C@H]1CC[C@H]2[C@@H]3CC[C@H]4C[C@](C)(O)CC[C@]4(C)[C@H]3CC[C@]12C [ganaxolone, Ganaxolone] | 211.0 | 1400 | 94.2 |  | 625 | 12.6 | 110 | 99.0 | 4 (≈ 12 µM) | 2 (≈ 6.01 µM) | 12 | 116 | 98.0 | 94.6 | 95.6 |  |  | 27.8 | 49.8 | 43.6 | Dog plasma t90 (Dog plasma stability; dog plasma, 2 μg/mL, 37° C.): 564 min; half-life (Dog plasma stability; [16]): 3740 min |
| CC(=O)OCCN(CCOC(C)=O)CC(=O)OC(C)(C)C(=O)OCC(=O)O[C@]1(C)CC[C@@]2(C)[C@@H](CC[C@@H]3[C@@H]2CC[C@]2(C)[C@@H](C(C)=O)CC[C@@H]32)C1 [Compound 229] |  |  |  |  |  | 6.1 | 227 | 1 | 11 (≈ 15.6 µM) | 22 (≈ 31.2 µM) |  |  |  |  |  |  |  | 224 | 6.2 | 1 |  |
| CC(=O)[C@H]1CC[C@H]2[C@@H]3CC[C@H]4C[C@](C)(OC(=O)COC(=O)C(C)(C)OC(=O)CN(CCO)CCO)CC[C@]4(C)[C@H]3CC[C@]12C [Compound 228] | 1.4 | 9 | 1.8 | GNX produced in rat | 12 | 6.2 | 225 | 6 |  |  | 16.4 | 84.4 | 15 | 1.7 | 89 | No GNX produced | No GNX produced | 129 | 10.7 | 12.9 | Comments: production of GNX (ganaxolone) in human liver microsomes (in vitro [2]; human liver microsomes): In human GNX produced.; Comments: production of GNX (ganaxolone) in rat liver microsomes [4]: In rat no GNX produced;; Dog plasma t90 (Dog plasma stability; dog plasma, 2 μg/mL, 37° C.): 3 min; half-life (Dog plasma stability; [16]): 20 min; half-life [5, 15]: 32 min; half-life [6, 19]: 511 min |
